As a reminder, the IC50 is the concentration that inhibits the measured activity by half. High values mean a need for much substance, low ones inhibition by little substance. By inhibition is commonly meant the change of the read-out against control, counted positive when it falls.

Our source for the IC50, EC50 and inhibition values is patent US10045980B2, “Inhibitor of p38 map kinase” (RESPIVERT LTD, priority 2014, dated 2018).

The target in assay [1] is T1, p38 MAPKα isoform (MAPK14) (Homo sapiens, UniProt Q16539).
T1 construct: purchased Life Technologies
Put plainly: p38 MAPKα enzyme inhibition (Z-LYTE FRET). It counts as biochemical. The protocol: (§1) The enzyme inhibitory activities of the compound disclosed herein were determined by FRET using synthetic peptides labelled with both donor and acceptor fluorophores (Z-LYTE, Life Technologies, Paisley, UK).
The enzyme (40 ng/mL, 2.5 μL) was incubated with the test compound (2.5 μL of either 40 μg/mL, 12 μg/mL, 4 μg/mL, 1.2 μg/mL, 0.4 μg/mL, 0.12 μg/mL, 0.04 μg/mL, 0.012 μg/mL, 0.004 μg/mL or 0.0012 μg/mL) for 2 h at RT. […] Development reagent (protease, 5 μL) was added for 1 h prior to detection in a fluorescence microplate reader (EnVision, Perkin Elmer, Waltham, Mass., USA).
(§2) In all cases, the site-specific protease cleaves non-phosphorylated peptide only and eliminates the FRET signal. Phosphorylation levels of each reaction were calculated using the ratio of coumarin emission (donor) over fluorescein emission (acceptor), for which low ratios indicate high phosphorylation and high ratios indicate low phosphorylation levels.

The target of another assay is T2, p38MAPKγ (MAPK12) (Homo sapiens, UniProt P53778).
T2 construct: purchased Life Technologies
T2 sequence (P53778 1-367): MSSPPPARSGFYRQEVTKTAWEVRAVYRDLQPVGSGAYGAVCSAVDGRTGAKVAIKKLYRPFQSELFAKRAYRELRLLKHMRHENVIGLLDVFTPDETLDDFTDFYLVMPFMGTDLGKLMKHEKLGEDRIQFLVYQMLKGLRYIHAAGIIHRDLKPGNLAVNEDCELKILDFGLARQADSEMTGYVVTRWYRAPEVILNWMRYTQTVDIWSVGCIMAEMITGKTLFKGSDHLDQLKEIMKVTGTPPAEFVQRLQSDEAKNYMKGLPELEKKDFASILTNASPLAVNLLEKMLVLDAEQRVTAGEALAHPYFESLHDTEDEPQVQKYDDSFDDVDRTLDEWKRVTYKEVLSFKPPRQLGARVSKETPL
The assay can be described thus: p38 MAPKγ enzyme inhibition (Z-LYTE FRET). Format: biochemical. Here is the method: as §1
The enzyme (800 ng/mL, 2.5 μL) was incubated with the test compound (2.5 μL at either 40 μg/mL, 12 μg/mL, 4 μg/mL, 1.2 μg/mL, 0.4 μg/mL, 0.12 μg/mL, 0.04 μg/mL, 0.012 μg/mL, 0.004 μg/mL or 0.0012 μg/mL) for 2 h at RT. The FRET peptides (8 μM, 2.5 μL), and appropriate ATP solution (2.5 μL, 400 μM) were then added to the enzymes/compound mixtures and incubated for 1 h at RT. Development reagent (protease, 5 μL) was added for 1 h prior to detection in a fluorescence microplate reader (EnVision, Perkin Elmer).
as §2

In the next assay the target is T3, Hck (Homo sapiens, UniProt P08631).
T3 construct: purchased Life Technologies
The assay can be described thus: Hck enzyme inhibition (Z-LYTE FRET). Format: biochemical. Here is the method:
as §1
(§3) The relevant enzyme (1000 ng/mL, 1400 ng/mL or 2000 ng/mL respectively, 2.5 μL) was incubated with the test compound (either 40 μg/mL, 12 μg/mL, 4 μg/mL, 1.2 μg/mL, 0.4 μg/mL, 0.12 μg/mL, 0.04 μg/mL, 0.012 μg/mL, 0.004 μg/mL or 0.0012 μg/mL, 2.5 μL each) for 2 h at RT. The FRET peptides (8 μM, 2.5 μL), and appropriate ATP solutions (2.5 μL, 800 μM for c-Src, and 60 μM ATP for HCK and Syk) were then added to the enzyme/compound mixtures and incubated for 1 h at RT. Development reagent (protease, 5 μL) was added for 1 h prior to detection in a fluorescence microplate reader (EnVision, Perkin Elmer).
as §2

The next assay concerns the target T4, Syk (Homo sapiens, UniProt P43405).
T4 construct: purchased Life Technologies
The assay can be described thus: Syk enzyme inhibition (Z-LYTE FRET). It counts as biochemical. Here is the method:
as §1, §3, §2

For the next assay, the system named is d-U937 cells. The assay can be described thus: LPS-induced TNFα/IL-8 release in d-U937 cells. Format: cell-based. The settings on record: Homo sapiens. Here is the method: U937 cells, a human monocytic cell line, were differentiated into macrophage-type cells by incubation with PMA (100-200 ng/mL) for 48 to 72 hr. Cells were pre-incubated with final concentrations of test compound for 2 h and were then stimulated with LPS (0.1 μg/mL; from E. Coli: 0111:64, Sigma) for 4 h. The supernatant was collected for determination of TNFα and IL-8 concentrations by sandwich ELISA (Duo-set, R&D systems). […] The relative 50% effective concentration (REC50) was determined from the resultant concentration-response curve. The inhibition of IL-8 production was calculated at each concentration of test compound by comparison with vehicle control.

A further assay deals with PBMCs. The assay can be described thus: Cell mitosis assay. The settings on record: Homo sapiens, PBMC; At 5 ug/mL; PHA-treated PBMCs, 20 h exposure; Mean ± SEM. It counts as cell-based. The protocol:
Peripheral blood mononucleocytes (PBMCs) from healthy subjects were separated from whole blood (Quintiles, London, UK) using a density gradient (Histopaque-1077, Sigma-Aldrich, Poole, UK). The PBMCs (3 million cells per sample) were subsequently treated with 2% PHA (Sigma-Aldrich, Poole, UK) for 48 h, followed by a 20 h exposure to varying concentrations of test compounds. At 2 h before collection, PBMCs were treated with demecolcine (0.1 μg/mL; Life Technologies, Paisley, UK,) to arrest cells in metaphase.

Some results are limits rather than exact numbers.

T1 sequence (Q16539 whole entry, canonical isoform): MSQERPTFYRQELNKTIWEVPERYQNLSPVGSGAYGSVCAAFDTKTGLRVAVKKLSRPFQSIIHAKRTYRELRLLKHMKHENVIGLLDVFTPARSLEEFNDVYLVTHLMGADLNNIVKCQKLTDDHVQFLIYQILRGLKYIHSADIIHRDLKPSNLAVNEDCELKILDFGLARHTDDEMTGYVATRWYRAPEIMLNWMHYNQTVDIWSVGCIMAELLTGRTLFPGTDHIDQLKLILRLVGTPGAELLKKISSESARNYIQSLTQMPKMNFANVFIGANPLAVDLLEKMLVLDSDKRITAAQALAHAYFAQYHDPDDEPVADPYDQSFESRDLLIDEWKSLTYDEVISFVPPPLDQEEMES
T3 sequence (P08631 22-526): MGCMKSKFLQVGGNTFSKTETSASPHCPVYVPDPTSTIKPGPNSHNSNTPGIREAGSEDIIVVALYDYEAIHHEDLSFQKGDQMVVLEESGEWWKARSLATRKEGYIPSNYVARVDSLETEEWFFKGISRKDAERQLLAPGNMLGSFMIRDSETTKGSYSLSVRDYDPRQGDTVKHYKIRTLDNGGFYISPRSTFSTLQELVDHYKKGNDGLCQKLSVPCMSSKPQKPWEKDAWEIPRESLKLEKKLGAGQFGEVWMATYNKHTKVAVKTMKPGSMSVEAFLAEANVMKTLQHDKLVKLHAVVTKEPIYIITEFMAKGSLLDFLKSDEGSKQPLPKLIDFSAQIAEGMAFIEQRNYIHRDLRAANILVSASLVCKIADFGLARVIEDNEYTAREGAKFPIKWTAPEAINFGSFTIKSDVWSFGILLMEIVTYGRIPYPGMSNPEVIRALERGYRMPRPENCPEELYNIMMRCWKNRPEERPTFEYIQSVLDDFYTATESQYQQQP

On to `CCc1cncc(Nc2cc(COc3ccc(NC(=O)Nc4cc(C(C)(C)C)nn4-c4ccc(C)cc4)c4ccccc34)ccn2)n1` [Compound of the invention, 1-(3-(tert-butyl)-1-(p-tolyl)-1H-pyrazol-5-yl)-3-(4-((2-((6-ethylpyrazin-2-yl)amino)pyridin-4-yl)methoxy)naphthalen-1-yl)urea], for which the IC50 in assay [1] was 26 nM; against p38MAPKγ (MAPK12), 152 nM; at Hck it was 55 nM; at Syk, > 16000 nM; in the assay with d-U937 cells (dU937, d-U937 cells, LPS 0.1 μg/mL, 4 h) it was 11.4 nM. Moreover, the EC50 with d-U937 cells (dU937, 4 h, read-out: LPS Induced Release TNFα REC50 (dU937)) turned out to be 5.5 nM. In the assay with PBMCs, the inhibition at 5 µg/mL was 18 ± 7%.
